Data on 93 compounds can be found in PubChem BioAssay AID1863 (Southern Research Specialized Biocontainment Screening …, 2009).

For this test, the system named is S. Typhimurium PhoP-regulated promoter GFP reporter, 4 h. In words: PhoP-dependent GFP reporter repression – Salmonella Typhimurium, primary screen (AID 1863).

Broadly, the pIC50 is the negative decadic logarithm of the IC50, by convention in mol/L.

pIC50: −log10 of the molar value.

In the case of `O=C(N/N=C/c1cc(Cl)ccc1O)c1cccnc1`, the pIC50 is 4.31. Then `CCCCCc1ccc(OCCC[n+]2ccccc2)c(CCCCC)c1`, with 4.08; and `CC(C)COc1ccc(Cc2cnc(N)nc2N)cc1`, with 4.01; and `Cc1ccc(C(=O)O)cc1N=Cc1cc(Br)cc(Br)c1O`, with 4.03. To `CC[C@H]1OC(=O)[C@H](C)[C@@H](O[C@H]2C[C@@](C)(OC)[C@@H](O)[C@H](C)O2)[C@H](C)[C@@H](O[C@@H]2O[C@H](C)C[C@H](N(C)C)[C@H]2O)[C@](C)(O)C[C@@H](C)[C@@H]2N[C@@H](COCCOC)O[C@H]([C@H]2C)[C@]1(C)O` belongs 4.48; to `Clc1ccc(CNCc2cccs2)cc1Cl`, 4.13; to `CCN(CC)c1ccc(/C=N/Nc2nc3ccccc3[nH]2)c(O)c1`, 3.87. Then `CC1CCc2c(N3CCC(O)CC3)c(F)cc3c(=O)c(C(=O)O)cn1c23` (stereo not drawn), with 5.20; and `CSCC[C@H](NC(=O)Nc1ccc(C)cc1)C(=O)O`, with 3.91; and `NC1=NC[C@@H](Cc2ccc(O)cc2)N1CCCCC1CCCCC1`, with 4.51.

With `C/C(=N\NC(=O)c1cc2ccccc2cc1O)c1ccccn1`, the pIC50 was 4.42. To `CCc1ccc(S(=O)(=O)/N=C2/C=C(Sc3ncn[nH]3)C(=O)c3ccccc32)cc1` belongs 4.00; to `CCCCC(CC)CN=C(N)NC(N)=NCCCCCCN=C(N)NC(N)=NCC(CC)CCCC` (stereo not drawn), 5.15; to `CCN1/C(=C/C=C/c2sc3ccccc3[n+]2CC)Sc2ccccc21`, 4.47. Then `COc1c(N2CCN(C(=S)NC3CC4CCC3C4)C(C)C2)c(F)cc2c(=O)c(C(=O)O)cn(C3CC3)c12` (stereo not drawn), with 4.65; and `CC(C)CCNCC(O)CON=C1c2ccccc2-c2ccccc21` (stereo not drawn), with 3.91; and `c1ccc(-c2cccc(-c3ccccn3)n2)nc1`, with 4.37. To `Cc1cccc(Nc2cc(C)c3c(O)cccc3n2)c1C` belongs 4.41. As for `CCCCN(CCCC)C(=O)c1cn(CC)c2cc(N3CCN(C)CC3)c(F)cc2c1=O`, the pIC50 was 4.94. Then `O=C(N/N=C\c1cccc([N+](=O)[O-])c1O)C1COc2ccccc2O1` (stereo not drawn), with 3.98; and `Nc1[nH]c(=O)ncc1F`, with 4.54; and `NCC12CC3CC(C1)CC(c1ccc(Br)cc1)(C3)C2`, with 4.21.

As to `N=c1n(CC(=O)c2ccc(Br)s2)c2ccccc2n1Cc1ccccc1`, the pIC50 is 4.17.

Take `O=C(c1ccccc1)c1c2c(cc3sc4ccccc4[n+]13)-c1cccc3cccc-2c13`: the pIC50 is 4.10. Then `COC(=O)C(C)NC(=S)N1CCN(c2c(F)cc3c(=O)c(C(=O)O)cn(C4CC4)c3c2OC)CC1C` (stereo not drawn), with 4.12; and `CC[C@@H](C)[C@H](CNC)NC[C@@H](Cc1cccc2ccccc12)NCCc1cccc(C(F)(F)F)c1`, with 4.48. As for `CC(C(=O)c1ccc(-c2ccccc2)cc1)[n+]1cccc(NC(=O)c2ccccc2)c1` (stereo not drawn), the pIC50 was 4.11.

In the case of `CNC[C@H](CC1CCCCC1)NC[C@H](Cc1ccccc1)NCCC12CC3CC(CC(C3)C1)C2`, the pIC50 was 4.74. Then `Fc1ccc(CCNCc2ccc(Cl)c(Cl)c2)cc1`, with 4.07; and `CC(C(=O)NC1CCS(=O)(=O)C1)N1C(=O)/C(=C/c2ccc(Cl)cc2)SC1=S` (stereo not drawn), with 4.40; and `CCCCCCCCCCOC(=O)C[N+](C)(C)C/C=C(/C)Cl`, with 4.29. Consider `Cc1cc2nc3ccc(=[N+](C)C)cc-3sc2cc1N`, for which the pIC50 is 4.49.

Take `O=[N+]([O-])c1ccc(O)c2ncccc12`: the pIC50 is 5.46. Then `Cc1ccc(S(=O)(=O)Nc2cc(Cl)c(O)c3ncccc23)cc1`, with 4.28; and `CCCCCOc1ccc(CSC(=N)N)cc1[N+](=O)[O-]`, with 4.08; and `COc1ccc(/C=N/Nc2cc(C)nc3c(C)cccc23)cc1`, with 4.09. Then `CCCCCCOC(=O)C[N+](C)(C)CCOC1CC2CCC1(C)C2(C)C` (stereo not drawn), with 4.40; and `CC(C)Oc1ccc(Cc2cnc(N)nc2N)cc1`, with 4.04. For the compound `CCCCCCCCCCCCCCCCn1cc[n+](C)c1`, the pIC50 was 4.77.

Regarding `Cc1sc2ncnc(N/N=C/c3ccccc3O)c2c1C`, the pIC50 is 4.08. In the case of `CCN1/C(=C/C(C)=C/c2sc3ccccc3[n+]2CC)Sc2ccccc21`, the pIC50 was 4.75. Then `O=C(Nc1ccccc1)Nc1ncc([N+](=O)[O-])s1`, with 4.39; and `N=C(N)SCc1cn(-c2ccccc2)nc1-c1ccc(Br)cc1`, with 4.52; and `O=C(Nc1ccccc1)Nc1ccc(Cl)c([N+](=O)[O-])c1`, with 4.34.

Consider `O=C(N/N=C/c1cc(O)ccc1Br)c1cccnc1`, for which the pIC50 was 4.21.

For the compound `Oc1cccc(C=NCc2ccccc2)c1O`, the pIC50 was 3.97. To `Cc1ccc(Nc2cc(C)c3c(O)cccc3n2)cc1C` belongs 4.12. Then `COc1cccc(Nc2nc(NCC3CCCO3)c3ccccc3n2)c1` (stereo not drawn), with 4.09.

Turning to `C=CC1=C(C(=O)O)N2C(=O)[C@@H](NC(=O)/C(=N/OCC(=O)O)c3csc(N)n3)[C@H]2SC1`, the pIC50 is 4.65. To `O=C(c1cccs1)c1no[n+]([O-])c1C(=O)c1cccs1` belongs 4.47; to `CO/N=C(/C(=O)N[C@@H]1C(=O)N2C(C(=O)O)=CCS[C@H]12)c1cnc(N)s1`, 4.80. Then `CC(=O)NC(c1cccs1)c1cc([N+](=O)[O-])c2cccnc2c1O` (stereo not drawn), with 4.41; and `Cc1c2ccncc2c(C)c2c1[nH]c1ccccc12`, with 4.58. Then `COc1ccc(OCc2n(CC(=O)OC3CC(C)CCC3C(C)C)c3ccccc3[n+]2C)cc1` (stereo not drawn), with 4.13; and `Nc1cc2nsnc2cc1Br`, with 3.98. On to `O=C1c2ccccc2C(=O)c2[nH]c(=O)[nH]c21`, for which the pIC50 was 4.84. Then `CCCCOc1ccc(Cc2cnc(N)nc2N)cc1`, with 4.04; and `COc1c(N2CCN(C(=S)Nc3ccccc3F)C(C)C2)c(F)cc2c(=O)c(C(=O)O)cn(C3CC3)c12` (stereo not drawn), with 5.27. On to `CCN1/C(=C/C=C/C=C/c2sc3ccccc3[n+]2CC)Sc2ccccc21`, for which the pIC50 was 4.73.

Turning to `Cc1ccc(C)c(/C=C/C(=O)c2ccccc(=O)c2O)c1`, the pIC50 is 4.05. Then `Cc1scc(C(=O)N/N=C/c2ccc([N+](=O)[O-])o2)c1C`, with 3.96. To `C[C@H]1c2cccc(O)c2C(O)=C2C(=O)[C@]3(O)C(O)=C(C(N)=O)C(=O)[C@@H](N(C)C)C3[C@@H](O)C21` (stereo partly drawn) belongs 5.28; to `Oc1ccc(/C=N/Nc2nccnc2Cl)c(O)c1`, 4.19. Regarding `C[C@H]1c2cccc(O)c2C(O)=C2C(=O)C3(O)C(O)=C(C(N)=O)C(=O)[C@@H](N(C)C)[C@@H]3[C@@H](O)[C@@H]21` (stereo partly drawn), the pIC50 was 5.18. Then `Cc1cc(C(C)(C)CC(C)(C)C)ccc1OCCOCC[N+](C)(C)Cc1ccccc1`, with 4.50; and `CCCCCNCC(=O)Nc1cccc(C(=O)Nc2cccc(C(F)(F)F)c2)c1`, with 4.02; and `CCn1cc(C(=O)NCCN(C)C)c(=O)c2cc(F)c(N3CCN(C)CC3)cc21`, with 4.28. To `C=C1c2cccc(O)c2C(O)=C2C(=O)[C@]3(O)C(O)=C(C(N)=O)C(=O)[C@@H](N(C)C)[C@@H]3[C@@H](O)[C@H]12` belongs 5.85; to `C1=C(CCNCc2ccccc2)CCCC1`, 5.04; to `Oc1c(CN2CCOCC2)cc(COCc2ccccc2)c2cccnc12`, 4.01. To `CC[C@H]1OC(=O)[C@H](C)[C@@H](O[C@H]2C[C@@](C)(OC)[C@@H](O)[C@H](C)O2)[C@H](C)[C@@H](O[C@@H]2O[C@H](C)C[C@H](N(C)C)[C@H]2O)[C@](C)(O)C[C@@H](C)CN(C)[C@H](C)[C@@H](O)[C@]1(C)O` belongs 5.63.

Take `CCCCCCCCCCCCCCCC[N+](C)(C)CC`: the pIC50 is 4.61. To `CCCCCCCCCC[N+](C)(C)CC/C=C1/c2ccccc2Sc2ccc(Cl)cc21` belongs 4.73; to `CCCCCCCCCCCCCCCC[n+]1ccc(/C=N/O)cc1`, 4.48.

For `O=C(N/N=C/c1ccc([N+](=O)[O-])o1)c1ccc(O)cc1`, the pIC50 was 4.48. `O=C1NC(=S)S/C1=C\C=C\c1ccc([N+](=O)[O-])o1`: the pIC50 is 4.65. To `COc1c(N2CCN[C@H](C)C2)c(F)cc2c(=O)c(C(=O)O)cn(C3CC3)c12` belongs 6.44; to `COc1cc(Cc2cc(N)nc(N)n2)cc(OC)c1OC`, 5.30. Then `O=C(N/N=C/c1coc2ccc(Cl)cc2c1=O)c1cc(O)cc(O)c1`, with 4.16; and `CCn1cc(C(=O)O)c(=O)c2cc(F)c(N3CCN(S(=O)(=O)c4ccc(NC(C)=O)cc4)CC3)cc21`, with 3.87.

As for `OCCNCc1c(OCc2ccc(Cl)cc2)ccc2ccccc12`, the pIC50 is 3.90. Then `O=C(N/N=C/c1cc([N+](=O)[O-])ccc1O)C1CC1`, with 4.18; and `O=C(Nc1nnc(-c2cccs2)o1)c1cccc(Oc2ccccc2)c1`, with 4.10. To `O=C1C(SCCO)=C(SCCO)C(=O)c2ccccc21` belongs 4.15; to `COc1ccc(C(=O)Cn2nc(CNc3ccc(Br)cc3)[n+]3c2CCCCC3)cc1`, 4.09. To `O=C(NC(CO)C(O)c1ccc([N+](=O)[O-])cc1)C(Cl)Cl` (stereo not drawn) belongs 5.01; to `O=C(C[n+]1cc(-c2ccc(Cl)c(Cl)c2)n2c1CCC2)N1c2ccccc2Sc2ccccc21`, 4.14; to `CC(C)NC1=C(Cl)C(=O)c2ccccc2C1=O`, 4.12. For the compound `Oc1cccc(/C=N/NC(=S)Nc2cccnc2)c1O`, the pIC50 was 4.34. To `CCC(C)N1CCC2(CC1)N=c1c(c3c4c5c(C)c(O)c3c(O)c1=NC(=O)C(C)=CC=C[C@H](C)[C@H](O)[C@@H](C)[C@@H](O)[C@@H](C)[C@H](OC(C)=O)[C@H](C)[C@@H](OC)C=CO[C@@](C)(O5)C4=O)N2` (stereo partly drawn) belongs 5.57; to `Clc1ccc(CN2CCC(c3nc4ccc(Cl)cc4[nH]3)CC2)cc1`, 4.10.

Regarding `O=c1[nH]cc(F)c(=O)[nH]1`, the pIC50 is 5.01. Then `C#CCOCCOCCOCCNc1nc(N2CCN(C(=O)CCCCCCCCCCNC(=O)[C@H](CCCCN)n3cc(C[C@@H](C)CC)nn3)CC2)nc(N2CCN(C(=O)CCCCCCCCCCNC(=O)[C@H](CCCN=C(N)N)n3cc(C[C@@H](C)CC)nn3)CC2)n1`, with 4.09.
